For data set [1], the system named is influenza viruses (A/PR8/34/H1N1). The conditions noted are these: for EC50: read-out: EC50 Antiviral effect (50% effective concentration), viral infection-preventing effect.
In data set [2] the test system is canine kidney cultured cells (MDCK). The conditions noted are these: read-out: CC50 Cytotoxicity (50% cytotoxic concentration); Table 3.
Data set [3] has as its system influenza viruses (A/PR8/34/H1N1). The experiment in a line: Hemagglutination assay with chicken erythrocytes. It is filed as cell-based, influenza virus. The conditions noted are these: final concentrations 0 to 16 μmol/l, FIG. 3.
The test system is the same in data set [4]. The conditions noted are these: for EC50: read-out: EC50 Antiviral effect (50% effective concentration), viral infectivity-inhibiting effect.
Data set [5] has the same test system. As to the kind of experiment: microbe, parasite or virus in culture. The conditions noted are these: H1N1|PR8, MDCK, read-out: EC50 Antiviral effect (50% effective concentration), viral infectivity-inhibiting effect.
For data set [6] the test system is unchanged. As to the kind of experiment: microbe, parasite or virus in culture. The following applies: H1N1|PR8, MDCK, read-out: EC50 Antiviral effect (50% effective concentration), viral infection-preventing effect.

Where two headings read alike, the source gives them in different places.

As for `O=C(O[C@@H]1Cc2c(O)cc(O)cc2O[C@@H]1c1cc(O)c(O)c(O)c1)c1cc(O)c(O)c(O)c1` [EGCG, epigallocatechin gallate], the “SI Selectivity (Selective Index = CC50/EC50)” value turned out to be 2.91 in data set [1] (Table 3, viral infection-preventing effect) and 703 in data set [4] (Table 4, viral infectivity-inhibiting effect). Further, the EC50 in data set [1] came to 94.6 µM; in data set [1] (Table 5, Example 3, comparison with zanamivir and oseltamivir phosphate) it was 94.7 µM; in data set [4] (Table 4, sample incubated with A/PR8/34/H1N1 for 30 minutes before application to MDCK cells), 0.391 µM; in data set [4] (Table 6, Example 3, comparison with zanamivir and oseltamivir phosphate), 0.391 µM. For the same compound, the CC50 in data set [2] stood at 276 µM. For the same compound, the “suppression of agglutination of the erythrocytes” value in data set [3] is reported as “not observed”.
With `CCOC(=O)C1=C[C@@H](OC(CC)CC)[C@H](NC(C)=O)[C@@H](N)C1` [oseltamivir phosphate], the values for the EC50 in data set [5] and in data set [6] were 56.2 µM and 58.2 µM, respectively.
Regarding `CC(=O)N[C@H]1[C@H]([C@H](O)[C@H](O)CO)OC(C(=O)O)=C[C@@H]1N=C(N)N` [zanamivir], the values for the EC50 in data set [5] and in data set [6] were 6.3 µM and 38 µM, respectively.

Values taken from US8952055B2 (priority 2008, dated 2015).
